Test results: patent US20030232765A1, “Aryl urea compounds in combination with other cytostatic or cytotoxic agents for treating human cancers” (BAYER CORPORATION, priority 2001, published 2003)
Counter-ions that a name gives are not always drawn. Like-named read-outs stand apart in the source and are kept apart here.

Legend:
[1] = Tolerability (body weight, mortality) in MiaPaCa-2 tumor-bearing mice (Example 2); assay type: in vivo; details: Gemzar 120 mg/kg/dose i.p. q4d×3; Compound A p.o. qd×9 (40 mg/kg/dose, 80 mg/kg dose level); alone or concurrent
Text: (§1) Mice received food and water ad libitum.
(§2) These schedules are termed ‘Concurrent Therapy’.

[2] = tested on: A549 human non-small cell lung tumor xenografts; test: Tumor xenograft experiment, established A549 tumors, anti-tumor efficacy (Example 5); assay type: in vivo; details: Iressa 150 mg/kg/dose p.o. qd×9, Compound A 80 mg/kg/dose p.o. qd×9; for percent tumor growth suppression (% TGS): alone or combined, endpoint time to one mass doubling
Description: (§3) The NCI-H460 cells were maintained and passaged in vitro using DMEM (GIBCO cat. # 11995-065: 500 mls) supplemented with 10% heat inactivated fetal bovine serum (JRH Biosciences cat.# 12106-500M), 2 mM L-glutamine (GIBCO cat. # 25030-81), 10 mM HEPES buffer (GIBCO cat # 15630-080) and penicillin-streptomycin (GIBCO cat. # 15140-122: 5 mls/[…]). The A549 cells were maintained and passaged using RPMI 1640 media (GIBCO cat.# 11875-085: 1000 ml) supplemented with 10% heat-inactivated fetal bovine serum (JRH Biosciences cat.# 12106-500M). All cells were maintained at 37° C. and 5% CO2 in a Fisher Scientific 610 CO2 incubator.
as §2

[3] = tested on: MX-1 mammary tumor xenografts; test: Tumor xenograft experiment, established MX-1 tumors, anti-tumor efficacy (Example 4); details: DOX 4 mg/kg/dose i.v. q4d×3; Compound A 40 mg/kg/dose p.o. qd×9; alone or combined; endpoint time to four mass doublings
Description: The DLD-1 human colon carcinoma and the MiaPaCa-2 human pancreatic carcinoma were obtained from the American Type Tissue Culture Collection Repository. The MX-1 human mammary tumor was obtained from the NCI tumor repository. Tumors were maintained as a serial in vivo passage of s.c. fragments (3×3 mm) implanted in the flank using a 12 gauge trocar. A new generation of the passage was initiated every three or four weeks.
Female mice were implanted s.c. with DLD-1, MX-1 or Mia-PaCa-2 tumor fragments from an in vivo passage. […] The general health of mice was monitored and mortality was recorded daily. Tumor dimensions and body weights were recorded twice a week starting with the first day of treatment. […]
Tumor weights were calculated using the equation (l×w^2)/2, where l and w refer to the larger and smaller dimensions collected at each measurement. […] Anti-tumor efficacy was measured as the incidence of complete regressions (CR) defined as tumors that are reduced to below the limit of measurement (3 mm) in both length and width, partial regressions (PR) defined as tumors that are reduced by more than 50% but less than 100% of their initial size, and percent tumor growth suppression (% TGS). […]

[4] = Camptosar 40 mg/kg/dose i.p. q4d×3, Compound A 80 mg/kg/dose p.o. qd×9
Text: (§4) Ncr nu/nu female mice (Taconic Farms, Germantown, N.Y.) were used for all in vivo studies invovling the DLD-1 and NCI-H460 tumor models. Female CB-17 SCID nice (Taconic Farms, Germantown, N.Y.) were used for studies involving the Mia-PaCa-2 tumor model. The mice were housed and maintained within the Comparative Medicine Department at Bayer Corporation, West Haven, Conn. in accordance with Bayer IACUC, State, and Federal guidelines for the humane treatment and care of laboratory animals. Mice received food and water ad libitum.
as §2
In the first study, Camptosar® was administered i.p at 40 mg/kg/dose.

[5] = Iressa 150 mg/kg/dose p.o. qd×9; Compound A 80 mg/kg/dose p.o. qd×9; alone or combined; 10 mice per group
Text: as §2

in vivo = details: female, Ncr nu/nu, mouse, iv, 6.7 mg/kg/dose
Text: as §4, §2

[6] = tested on: NCI-H460 human non-small cell lung tumor xenografts; test: Tumor xenograft experiment, established s.c. NCI-H460 tumors, anti-tumor efficacy (Example 3); assay type: in vivo; details: Ncr nu/nu mice; Navelbine 6.7 mg/kg/dose i.v. q4d×3; Compound A 40 mg/kg/dose p.o. qd×9; alone or combined; endpoint time to three mass doublings
Text: as §4, §3, §2

[7] = tested on: MiaPaCa-2 human pancreatic tumor xenografts; test: Tumor xenograft experiment, established s.c. MiaPaCa-2 tumors, anti-tumor efficacy (Example 2); assay type: in vivo; details: Gemzar 120 mg/kg/dose i.p. q4d×3
Text: as §1, §2

[8] = tested on: DLD-1 human colon tumor xenografts; test: Tumor xenograft experiment, established s.c. DLD-1 tumors, anti-tumor efficacy (Example 1); assay type: in vivo; details: Camptosar 40 mg/kg/dose i.p. q4d×3, Compound A 80 mg/kg/dose p.o. qd×9
Text: as §1, §2

SMILES	lethality [1]	incidence of partial regressions (PR) ([2]; 10 mice per group)	percent tumor growth suppression (% TGS) [2] [%]	percent tumor growth suppression (% TGS) [3] [%]	lethality ([4]; alone or concurrent)	lethality [5]	further results
CNC(=O)c1cc(Oc2ccc(NC(=O)Nc3ccc(Cl)c(C(F)(F)F)c3)cc2)ccn1 [Compound A, N-(4-chloro-3-(trifluoromethyl)phenyl)-N′-(4-(2-(N-methylcarbamoyl)-4-pyridyloxy)phenyl)urea]	no lethality	2	218	46	no lethality	no weight loss or lethality	incidence of complete regressions (CR) ([2]; 10 mice per group): 1
CCC1=C[C@@H]2CN(C1)Cc1c([nH]c3ccccc13)[C@@](C(=O)OC)(c1cc3c(cc1OC)N(C)[C@H]1[C@@](O)(C(=O)OC)[C@H](OC(C)=O)[C@]4(CC)C=CCN5CC[C@]31[C@@H]54)C2 [Navelbine, 3′,4′-didehydro-4′deoxy-C-norvincaleukoblastine [R—(R,R)-2,3-dihydroxybutanedioate (1:2)(salt)]]	–	–	–	–	–	–	MTD at 9 days (in vivo): ~6.7 mg/kg; percent tumor growth suppression (% TGS) [6]: 32%
Nc1ccn([C@@H]2O[C@H](CO)[C@@H](O)C2(F)F)c(=O)n1 [Gemzar, Gemcitabine HCI]	no lethality	–	–	–	–	–	percent tumor growth suppression (% TGS) ([7]; CB-17 SCID mice, Compound A 40 mg/kg/dose p.o. qd×9, alone or concurrent, endpoint time to two mass doublings): 154%; incidence of complete regressions (CR) ([7]; 10 mice per group): no complete or partial tumor regressions; incidence of partial regressions (PR) ([7]; Compound A 40 mg/kg/dose p.o. qd×9, 10 mice per group): no complete or partial tumor regressions
COc1cc2ncnc(Nc3ccc(F)c(Cl)c3)c2cc1OCCCN1CCOCC1 [Iressa, 4-(3-chloro-4-fluoroanilino)7-methoxy-6-(3-morpholinopropoxy)quinazoline]	–	1	101	–	–	no lethality	–
COc1cccc2c1C(=O)c1c(O)c3c(c(O)c1C2=O)C[C@@](O)(C(=O)CO)C[C@@H]3O[C@H]1C[C@H](N)[C@H](O)[C@H](C)O1 [DOX, Doxorubicin HCl]	–	–	–	43	–	–	–
CCc1c2c(nc3ccc(OC(=O)N4CCC(N5CCCCC5)CC4)cc13)-c1cc3c(c(=O)n1C2)COC(=O)[C@]3(O)CC [Camptosar, Irinotecan]	–	–	–	–	no lethality	–	weight loss ([4]; alone or concurrent): minimal weight loss; tolerability ([4]; single agents): well tolerated; incidence of complete regressions (CR) ([8]; 10 mice per group): no complete or partial tumor regressions; incidence of partial regressions (PR) ([8]; 10 mice per group): no complete or partial tumor regressions; percent tumor growth suppression (% TGS) ([8]; Ncr nu/nu mice, alone or concurrent, endpoint time to three mass doublings): 71%
